For one data set, the target named is T1, α5GABAA receptors (Homo sapiens, UniProt P18507+P31644).
T1 sequence (P31644 32-462): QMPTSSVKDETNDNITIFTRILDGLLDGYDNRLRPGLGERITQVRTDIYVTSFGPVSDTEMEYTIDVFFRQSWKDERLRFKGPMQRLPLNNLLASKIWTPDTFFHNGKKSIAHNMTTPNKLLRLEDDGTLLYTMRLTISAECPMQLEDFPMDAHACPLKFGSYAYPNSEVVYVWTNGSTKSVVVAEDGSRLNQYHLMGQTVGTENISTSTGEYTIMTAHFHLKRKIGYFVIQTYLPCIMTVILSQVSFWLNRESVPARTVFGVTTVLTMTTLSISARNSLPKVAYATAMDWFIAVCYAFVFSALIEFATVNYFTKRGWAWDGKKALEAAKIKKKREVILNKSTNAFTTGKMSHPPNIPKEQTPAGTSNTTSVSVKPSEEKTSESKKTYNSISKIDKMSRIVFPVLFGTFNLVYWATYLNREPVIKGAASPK
T1 sequence (P28472 26-473 partner): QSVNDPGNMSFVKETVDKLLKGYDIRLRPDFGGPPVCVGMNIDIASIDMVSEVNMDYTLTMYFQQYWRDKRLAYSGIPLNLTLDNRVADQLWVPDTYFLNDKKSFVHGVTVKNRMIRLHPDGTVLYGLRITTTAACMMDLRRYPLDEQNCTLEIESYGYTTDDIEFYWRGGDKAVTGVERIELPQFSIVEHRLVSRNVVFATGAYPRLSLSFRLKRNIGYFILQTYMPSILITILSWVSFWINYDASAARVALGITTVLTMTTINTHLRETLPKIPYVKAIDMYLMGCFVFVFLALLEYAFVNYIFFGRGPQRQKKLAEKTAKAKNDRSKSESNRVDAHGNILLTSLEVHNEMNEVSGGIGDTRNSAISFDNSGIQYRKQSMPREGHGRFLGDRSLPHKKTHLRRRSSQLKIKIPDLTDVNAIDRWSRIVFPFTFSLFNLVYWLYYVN
T1 sequence (P18507 40-467 limits assumed): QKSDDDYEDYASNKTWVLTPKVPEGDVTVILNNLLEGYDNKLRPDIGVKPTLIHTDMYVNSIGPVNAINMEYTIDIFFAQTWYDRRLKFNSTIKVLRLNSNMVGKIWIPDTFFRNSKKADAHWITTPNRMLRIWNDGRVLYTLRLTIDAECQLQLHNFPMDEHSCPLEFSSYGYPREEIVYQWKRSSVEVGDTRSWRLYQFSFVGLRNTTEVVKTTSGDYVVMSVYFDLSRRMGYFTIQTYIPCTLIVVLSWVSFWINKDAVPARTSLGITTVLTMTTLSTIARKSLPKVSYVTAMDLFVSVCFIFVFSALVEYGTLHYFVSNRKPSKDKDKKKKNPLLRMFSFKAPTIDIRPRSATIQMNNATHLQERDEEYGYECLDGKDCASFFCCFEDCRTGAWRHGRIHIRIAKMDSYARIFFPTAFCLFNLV
The conditions noted are these: cited from earlier work.

Data set [1] deals with T2, α5GABAARs (Mus musculus, UniProt P22723+Q8BHJ7). Kind of data set: Fear conditioning after IL-1β or LPS injection. The class given is in vivo, mice. Here is the method: Pavlovian fear-conditioning tasks were used for behavioral analysis^29. LPS (125 μg kg^−1, i.p., with physiological saline as the vehicle control) or IL-1β (1 μg kg^−1, i.p., with 0.1% bovine serum albumin as the vehicle control) was injected into male 3- to 4-month-old WT and Gabra5−/− mice 3 h before conditioning. The intensity of the electric footshock was 0.5 mA. For some mice, the inverse agonist L-655,708 (0.35 or 0.5 mg kg^−1, i.p.) or vehicle control (10% DMSO, i.p.) was injected 30 min before training. The movement of the mouse was monitored. The percentage of time that each mouse spent in a freezing position was determined using FreezeView software (Version 2.26, Actimetrics Inc, Wilmette, Ill., USA).
We have determined that IL-1β-induced impairment of contextual fear memory can be reversed by pharmacological inhibition of α5GABAA receptors by the inverse agonist MRK-016. Fear conditioning was performed 3 h after injection of IL-1β (1 μg kg^−1, i.p.) in both wild-type (WT) and α5GABAA receptor knock out (Gabra5−/−) mice. Mice were trained to associate a context (contextual fear) and a tone (cued fear) with an aversive electric footshock. 24 h after conditioning each mouse was placed in the training context, and contextual fear memory was measured as the percentage of time spent freezing. Cued fear memory was measured 48 h after training as the percentage of time spent freezing to the conditioned auditory tone in a novel context.

In data set [2] the target is T2, α5GABAARs. Kind of data set: Tonic inhibitory current, whole cell voltage-clamp in cultured hippocampal neurons. The class given is cell-based, mice. Also on record: endogenous in cells; host or cells: primary embryonic mouse hippocampal neurons, alone or co-cultured with cortical microglia.
The conditions of data set [3]: cited from earlier work.
The nature of data set [4]: Analysis of blood gases during isoflurane anesthesia. The class given is in vivo, mice. The note with it: for pH: n = 6. The text has this: A needle was carefully inserted into the heart and blood was extracted into a heparinized syringe. The collected blood was immediately placed on ice and transported to a blood gas analyzer (ABL 700 series, Radiometer, Copenhagen, Denmark).

The nature of data set [5]: Isoflurane concentration in brain tissue (gas chromatography) and in expired gas. The note with it: after removal from the chamber. The text has this:
Following a designated recovery time, mice were sacrificed by cervical dislocation. The brains were rapidly removed at room temperature and placed in a gas-tight syringe containing polytetrafluoroethylene beads. The whole brain was immediately crushed with two strokes of the plunger and the syringe was then sealed. […] The methods are similar to that described for measurement of inhaled anesthetics in blood.^26

Data set [6] is described as follows: Core (rectal) temperature during anesthesia. The class given is in vivo, mice. The protocol: Mice were placed in the air-tight acrylic glass chamber for administration of the anesthetic; a rectal probe was inserted after the mice lost their righting reflex and rectal temperature was […] to measure temperature between 5 min and 1 h. The rectal probe was not inserted prior to the 5 min mark to ensure the mice were adequately anesthetized and not discomforted.

Entries after “also recorded” stand apart in the source; their conditions may differ.

By inhibition is commonly meant the drop in the measured response relative to a control, in per cent.

T2 sequence (Q8BHJ7 32-463 limits assumed): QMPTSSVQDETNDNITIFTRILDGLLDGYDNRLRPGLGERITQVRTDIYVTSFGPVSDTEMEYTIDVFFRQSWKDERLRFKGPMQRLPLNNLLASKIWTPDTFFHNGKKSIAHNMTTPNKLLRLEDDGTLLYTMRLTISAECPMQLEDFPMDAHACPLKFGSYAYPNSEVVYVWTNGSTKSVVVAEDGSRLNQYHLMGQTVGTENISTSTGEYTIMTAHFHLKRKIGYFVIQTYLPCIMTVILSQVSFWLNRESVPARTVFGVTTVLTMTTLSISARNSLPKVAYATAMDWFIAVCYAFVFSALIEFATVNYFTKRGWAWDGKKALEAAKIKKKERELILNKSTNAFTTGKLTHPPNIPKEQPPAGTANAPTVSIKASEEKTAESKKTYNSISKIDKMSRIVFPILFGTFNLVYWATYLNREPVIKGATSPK
T2 sequence (P63080 26-473 partner): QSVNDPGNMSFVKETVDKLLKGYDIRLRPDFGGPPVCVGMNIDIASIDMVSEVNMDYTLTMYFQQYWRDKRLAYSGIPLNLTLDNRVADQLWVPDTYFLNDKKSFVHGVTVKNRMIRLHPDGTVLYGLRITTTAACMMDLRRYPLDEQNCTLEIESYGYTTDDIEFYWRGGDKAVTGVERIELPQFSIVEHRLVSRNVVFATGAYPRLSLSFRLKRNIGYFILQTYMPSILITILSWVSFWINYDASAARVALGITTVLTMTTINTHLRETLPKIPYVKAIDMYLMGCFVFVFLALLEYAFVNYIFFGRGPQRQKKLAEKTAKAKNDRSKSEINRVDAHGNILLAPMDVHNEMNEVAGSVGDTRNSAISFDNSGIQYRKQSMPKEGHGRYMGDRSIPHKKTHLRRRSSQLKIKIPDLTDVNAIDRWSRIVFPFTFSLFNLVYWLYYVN
T2 sequence (P22723 39-474): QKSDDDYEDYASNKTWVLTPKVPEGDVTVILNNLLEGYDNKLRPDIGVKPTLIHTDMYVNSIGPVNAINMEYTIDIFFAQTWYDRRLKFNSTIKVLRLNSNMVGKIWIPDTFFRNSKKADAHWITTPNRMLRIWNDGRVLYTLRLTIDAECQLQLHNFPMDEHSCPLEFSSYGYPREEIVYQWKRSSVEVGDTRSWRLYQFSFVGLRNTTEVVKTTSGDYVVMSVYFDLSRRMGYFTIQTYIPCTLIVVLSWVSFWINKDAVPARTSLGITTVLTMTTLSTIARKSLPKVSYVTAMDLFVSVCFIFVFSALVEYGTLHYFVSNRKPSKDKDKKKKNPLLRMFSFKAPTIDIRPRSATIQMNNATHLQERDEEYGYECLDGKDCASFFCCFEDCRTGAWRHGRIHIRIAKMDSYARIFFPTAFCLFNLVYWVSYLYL

With `CCOC(=O)c1ncn2c1[C@@H]1CCCN1C(=O)c1cc(OC)ccc1-2` [L-655,708], at α5GABAA receptors, the “affinity for α5GABAA receptors relative to other receptor subtypes” value was 50 fold, the “preference for α5GABAA receptors over α2 subunit-containing GABAA receptors” value is reported as 61 fold and the “preference for α5GABAA receptors over α3 subunit-containing GABAA receptors” value was 54 fold. At α5GABAA receptors (in vitro electrophysiological and biochemical studies), the “preference for α5GABAA receptors over α1 subunit-containing GABAA receptors” value was 107 fold. Further, at α5GABAARs [1] (IL-1β 1 μg kg^−1 i.p. or LPS 125 μg kg^−1 i.p. 3 h before conditioning, inverse agonist co-administered), the “contextual fear memory, WT mice (in words)” value was “attenuated the IL-1β-induced contextual fear memory deficits in WT mice; also recorded: restored freezing scores for contextual fear memory to control values”. Further, the “cued fear memory to a conditioned tone stimulus (in words)” value at α5GABAARs [1] (mouse, in vivo) was “did not affect freezing to a conditioned tone stimulus”. Also, on α5GABAARs [2] (L-655,708 20 nM, n=11, read-out: inhibition of the IL-1β-enhanced tonic current), the inhibition at 0.02 µM stood at 66.1%. The IL-1β-modulated tonic current on α5GABAARs [2] (L-655,708 20 nM, n=12) is 69.2±4.4 % of control. Also, the “effect on the tonic current (in words)” value on α5GABAARs [2] (cultured hippocampal neurons) is “the tonic current is selectively inhibited; also recorded: reverses enhancement of the tonic current by the inhaled anaesthetics isoflurane and desflurane; also recorded: reverses the sevoflurane-induced increase in tonic inhibitory conductance generated by GABAA receptors”.

As to `FC(F)OC(Cl)C(F)(F)F` (stereo not shown) [isoflurane], the “concentration required to impair the freezing response” value in data set [3] (administered during contextual fear learning) was 0.6%. Also, the “concentration required for memory blockade during anesthesia” value in data set [3] (rat, in vivo) is listed as 0.4%. For the same compound, the “threshold concentration that impaired memory performance during fear conditioning” value in data set [3] (rats) is given as 0.2%. Also, the “hypoxia (in words)” value in data set [4] (isoflurane 1 MAC in 30% O2 for 1 h or 5 min) is “Hypoxia did not occur”. Besides, in data set [4] (isoflurane 5 min), the pCO2 turned out to be 48.6 ± 2.02 mmHg, the pO2 was found to be 142 ± 16 mmHg and the pH is listed as 7.28 ± 0.02. In data set [4] (isoflurane 60 min), this compound displayed a pCO2 of 54.2 ± 12.3 mmHg, a pO2 of 193 ± 31 mmHg and a pH of 7.23 ± 0.08. Also, the “time until isoflurane in expired gas is undetectable” value in data set [5] was at most 7 min. In data set [6] (5 min after introduction into the anesthetic chamber), this compound registered a rectal temperature of 37.8±0.4 °C. Also, the rectal temperature in data set [6] (1 h after induction) was determined as 37.8±0.4 °C.

These data come from patent US9517265B2, “Methods for the prevention and/or treatment of memory impairment” (The Governing Council of the University of Toronto, priority 2010, dated 2016).
